This note sets out measurements from US11191293B2, “Nutritional composition and infant formula for promoting myelination of the brain” (NESTEC S.A., priority 2015, dated 2021).

In assay [1] the test system is brain myelination (myelin water fraction). The assay can be described thus: Cross-sectional correlation of infant formula nutrient content with brain myelination (mcDESPOT MRI myelin water fraction). In kind it is in vivo, human. The conditions noted are these: formula-fed children up to 5 years of age; brain regions named per nutrient. On the procedure:
MRI (Magnetic Resonance Imaging): MRI brain scans of infants and children between 0 and 5 years were acquired using a white matter imaging technique. This technique provides a quantitative measure, the Myelin Water Fraction (MWF), which is a surrogate marker of myelin content in the brain. When mapped as a function of time across early childhood, myelination trajectories can be generated.
Infant formula composition: six infant formulas fed to infants participating in a study were analyzed for their composition/level of myelin-relevant nutrients.
Infants included in this study were drawn from a larger longitudinal study of normal brain and behavioral development: the Brown University Assessment of Myelination and Behavior Across Maturation (BAMBAM). To focus on neurotypical development, children with known potential risk factors for learning, neurologic, or psychiatric disorders were specifically excluded during recruitment and enrollment. Thus, children with in utero alcohol or illicit substance exposure, premature (<37 weeks gestation) or multiple birth, fetal ultrasound abnormalities, complicated pregnancy (e.g., preeclampsia), APGAR scores <8, NICU admission, neurological disorder (e.g., head injury, epilepsy), psychiatric or developmental disorders in the infant, parents or siblings (including maternal depression requiring medication) were excluded. Ongoing screenings, such as the MCAT for autism, or CBCL for behavioral problems, were further used to remove enrolled children with clinically concerning behaviors or overt medical conditions (such as autism spectrum disorders).
A combination of retrospective and prospective data were acquired from parents via detailed medical histories and parental interview on the type of infant formula used, percentage of breastfeeding to formula feeding, and length of exclusive breastfeeding. This information was updated at each study visit, which occurred approximately every 6 months for children under 2 years, and yearly for older children. Using this information, children were categorized into one of 2 groups: #1. Exclusively formula-fed; and #2. Exclusively breastfed for at least 90 days (3 months). Children who were fed a combination of breastmilk and formula within 3 months were excluded from our analysis. Infants within the exclusively formula-fed group were further sub-divided based on parental reports of the main infant formula used throughout the first 3 months. Main formula was defined as that given 90% of the time or more (in the case were parents used an alternate brand during vacation, for example).
Using these criteria, 94 exclusively formula-fed infants and young children were selected into group #1. These included 13 children who received formula #2; 28 who received formula #5; 8 who received formula #3; 39 who received formula #4; 5 who received formula #1 and 1 who received formula #6. A sample of 52 exclusively breast-fed infants were also selected and matched to the over formula-fed group with regards to mean age, gestation duration, birth weight, male:female ratio, ethnicity ratio, maternal education, family size, and number of languages spoken in the home (in addition to English).
Each infant was scanned using the mcDESPOT (multicomponent Driven Equilibrium Single Pulse Observation of T1 and T2) white matter imaging technique Deoni et al. (Magn. Reson. Med. 2008, 60:1372-1387), which provides a quantitative measure of the myelin water fraction (MWF)—a measure of myelin content—at each point throughout the brain. All infants were scanned during natural (i.e. non-sedated) sleep using acoustically-muffled mcDESPOT imaging protocols. Total imaging times ranged from 19 minutes for the youngest toddlers to 24 minutes for the older 4 year-old children.

Assay [2] concerns neural progenitor cell (NPCs). The assay can be described thus: Differentiation assay: quantification of neuronal and glial marker expression in monolayer NPC culture. More on the design: key: marker integrated density normalized to DAPI integrated density. In kind it is cell-based, mouse. Particulars: 9 d culture; for astrocyte cell density: GFAP normalized to DAPI. As for the experimental part:
Generation of neural progenitor cell (NPCs) libraries: dissociation of E14 mouse neocortex E14 pup brains were harvested and placed in ice cold DPBS(1X)+10% Pen/Strep, then they were dissected using a dissecting microscope. From each pup, one brain hemisphere was placed in 2 ml of Neurobasal media/10% P/S/10X Hepes and another brain hemisphere was placed in another tube. The tissue from each tube was aseptically and manually dissociate into single cells, neurobasal complete medium was added and centrifuged at […] for 5 min. The tissue was then re-suspended in neurobasal complete media with GF and placed in a corning suspension culture dish 100 mm×20 mm (#430591). […] 24 well glass bottom plates (Mat Tek […]-1.0-13-F Case, glass bottom 24 well plates) were coated with poly-L-ornithin (Sigma P4957) and Fibronection (Sigma F1141) before use in the assay below. Cells were plated (10,000 cells per well) in Complete media with GF for 24 hours (500 ul per well). […] After 24 hours, it was ensured that cells were attached to the plate, then the medium was carefully removed. […] Note: medium contains no GF. […] The cells were culture for 9 d in media plus 2% Nu Serum, the medium was changed every 2 nd day. For fixation and subsequent immunohistochemical analysis the medium was removed, the cells were rinsed once with 1X PBS for 5 min, and fixed with 4% PFA in 1X PBS for 15 min at 4° C. The cells were then washed twice with 1X PBS for 5 min, left in 1X PBS, wrapped in foil and left overnight at 4C, or they were immediately primary antibody staining was carried out. PBS was removed and enough AB staining solution (1% Goat serum, 1xPBS, and 0.1% triton X) was added to cover the bottom, the block was kept at room temp for 1 hour. Primary antibody dilutions were made in appropriate amount of AB staining solution, 250 ul per well (the antibodies were only kept out on ice for a short time, mouse anti-MAP2 or TUJ1 1:500 (neuron marker), rabbit anti-GFAP(glial marker) 1:1000, chicken anti-Nestin CFP (EGFP antibody (progenitor cell marker)) 1:1000. AB staining solution was removed and a solution of primary antibodies was added to each chamber. The cells were wrapped in foil and kept overnight 4'C. The cells were then washed with 400 ul of AB staining solution for 5 min once to remove primary antibodies. Secondary antibody solutions were made (enough for 250 ul of each chamber) (Goat anti-mouse alexa 488 1:2000, anti-rabbit Cy3 (1:500), anti-chicken alexa 647 1:500, and 1:5000 Dapi). The cells were incubated at room temp for 1 hour in the dark and washed 2 time in AB staining solution for five mins. They were then kept at 4° C. or Imaged using a GE Cytell imager or LSM 710, Zeiss confocal microscope and analyze with ImageJ software(National Institutes of Health). Each marker expression was measured on collected images (integrated density measure in ImageJ) and normalized to DAPI fluorescence, marking all nuclei (integrated density measure). Octanoic Acid were labeled with neuronal beta-tubulin III (TuJ1), subsequent compounds were labeled with Microtubule-associated protein 2 (MAP2).

As for phosphatidylcholine, the “association of nutrient content of infant formula with myelination (myelin water fraction) over time in the brain” value in assay [1] was “an association with myelination (myelin water fraction) was observed”.
Still for that read-out and setting: for `[Mg+2]` [magnesium] the value was “an association with myelination (myelin water fraction) was observed”.
As for `CCCCCCCC/C=C\CCCCCCCCCCCCCC(=O)O` [Nervonic acid, Nervonic Acid], the astrocyte cell density in assay [2] (Nervonic acid high dose (Dose 3, 1 μm)) stood at 0.7028; in assay [2] (Nervonic acid low dose (Dose 1, 10 nM)), 0.6218; in assay [2] (Nervonic acid med dose (Dose 2, 100 nM)), 0.7215. Besides, the “Neuronal Cell density” value amounted to 0.5394 in assay [2] (Nervonic acid high dose (Dose 3, 1 μm), MAP2 normalized to DAPI); 0.4676 in assay [2] (Nervonic acid low dose (Dose 1, 10 nM), MAP2 normalized to DAPI); 0.5656 in assay [2] (Nervonic acid med dose (Dose 2, 100 nM), MAP2 normalized to DAPI).
On to iron, for which the “association of nutrient content of infant formula with myelination (myelin water fraction) over time in the brain” value in assay [1] is reported as “an association with myelination (myelin water fraction) was observed”.
The same measure, in the same setting: for `[P]` [phosphorus] the value was “an association with myelination (myelin water fraction) was observed”; for `[Zn]` [zinc], “an association with myelination (myelin water fraction) was observed”.
For the compound `CCCCCCCC(=O)O` [Octanoic acid, Octanoic Acid], the astrocyte cell density is 7.9 in assay [2] (Octanoic acid high dose (Dose 3, 250 μM)); 3.7 in assay [2] (Octanoic acid low dose (Dose 1, 10 μM)); 6.1 in assay [2] (Octanoic acid med dose (Dose 2, 50 μM)). The “Neuronal Cell density” value in assay [2] (Octanoic acid high dose (Dose 3, 250 μM), TuJ1 normalized to DAPI) was 1.7; in assay [2] (Octanoic acid low dose (Dose 1, 10 μM), TuJ1 normalized to DAPI), 1.2; in assay [2] (Octanoic acid med dose (Dose 2, 50 μM), TuJ1 normalized to DAPI), 1.8.
Consider `CCCCCCCCCCCCCCCCCC(=O)O` [Stearic acid, Stearic Acid], for which the astrocyte cell density is reported as 0.85 in assay [2] (Stearic acid high dose (Dose 3, 10 μM)); 0.68 in assay [2] (Stearic acid low dose (Dose 1, 100 nM)); 0.81 in assay [2] (Stearic acid med dose (Dose 2, 1 μm)). The “Neuronal Cell density” value in assay [2] (Stearic acid high dose (Dose 3, 10 μM), MAP2 normalized to DAPI) worked out at 0.64; in assay [2] (Stearic acid low dose (Dose 1, 100 nM), MAP2 normalized to DAPI) it was 0.54; in assay [2] (Stearic acid med dose (Dose 2, 1 μm), MAP2 normalized to DAPI), 0.66.
Turning to `[Ca+2]` [calcium], the “association of nutrient content of infant formula with myelination (myelin water fraction) over time in the brain” value in assay [1] is “an association with myelination (myelin water fraction) was observed”.
For `CCCCC/C=C\C/C=C\C/C=C\C/C=C\CCCC(=O)O` [AA, arachidonic acid], in assay [1], the “association of nutrient content of infant formula with myelination (myelin water fraction) over time in the brain” value was “an association with myelination (myelin water fraction) was observed”.
As for phosphatidylinositol, the “association of nutrient content of infant formula with myelination (myelin water fraction) over time in the brain” value in assay [1] is on record as “an association with myelination (myelin water fraction) was observed”.
On to vitamin B12, for which the “association of nutrient content of infant formula with myelination (myelin water fraction) over time in the brain” value in assay [1] was “an association with myelination (myelin water fraction) was observed”.
